According to patent publication US12662491B2 (Redona Therapeutics, Inc., priority 2020, dated 2026):
Like-named read-outs stand apart in the source and are kept apart here.

Biological target: T1, Zcchc11 enzyme (Homo sapiens, UniProt Q5TAX3)
T1 construct: made in house; host or cells: HEK293 cells (Zcchc11); E. coli Rosetta II (LIN28A)
T1 sequence (Q5TAX3 212-1420): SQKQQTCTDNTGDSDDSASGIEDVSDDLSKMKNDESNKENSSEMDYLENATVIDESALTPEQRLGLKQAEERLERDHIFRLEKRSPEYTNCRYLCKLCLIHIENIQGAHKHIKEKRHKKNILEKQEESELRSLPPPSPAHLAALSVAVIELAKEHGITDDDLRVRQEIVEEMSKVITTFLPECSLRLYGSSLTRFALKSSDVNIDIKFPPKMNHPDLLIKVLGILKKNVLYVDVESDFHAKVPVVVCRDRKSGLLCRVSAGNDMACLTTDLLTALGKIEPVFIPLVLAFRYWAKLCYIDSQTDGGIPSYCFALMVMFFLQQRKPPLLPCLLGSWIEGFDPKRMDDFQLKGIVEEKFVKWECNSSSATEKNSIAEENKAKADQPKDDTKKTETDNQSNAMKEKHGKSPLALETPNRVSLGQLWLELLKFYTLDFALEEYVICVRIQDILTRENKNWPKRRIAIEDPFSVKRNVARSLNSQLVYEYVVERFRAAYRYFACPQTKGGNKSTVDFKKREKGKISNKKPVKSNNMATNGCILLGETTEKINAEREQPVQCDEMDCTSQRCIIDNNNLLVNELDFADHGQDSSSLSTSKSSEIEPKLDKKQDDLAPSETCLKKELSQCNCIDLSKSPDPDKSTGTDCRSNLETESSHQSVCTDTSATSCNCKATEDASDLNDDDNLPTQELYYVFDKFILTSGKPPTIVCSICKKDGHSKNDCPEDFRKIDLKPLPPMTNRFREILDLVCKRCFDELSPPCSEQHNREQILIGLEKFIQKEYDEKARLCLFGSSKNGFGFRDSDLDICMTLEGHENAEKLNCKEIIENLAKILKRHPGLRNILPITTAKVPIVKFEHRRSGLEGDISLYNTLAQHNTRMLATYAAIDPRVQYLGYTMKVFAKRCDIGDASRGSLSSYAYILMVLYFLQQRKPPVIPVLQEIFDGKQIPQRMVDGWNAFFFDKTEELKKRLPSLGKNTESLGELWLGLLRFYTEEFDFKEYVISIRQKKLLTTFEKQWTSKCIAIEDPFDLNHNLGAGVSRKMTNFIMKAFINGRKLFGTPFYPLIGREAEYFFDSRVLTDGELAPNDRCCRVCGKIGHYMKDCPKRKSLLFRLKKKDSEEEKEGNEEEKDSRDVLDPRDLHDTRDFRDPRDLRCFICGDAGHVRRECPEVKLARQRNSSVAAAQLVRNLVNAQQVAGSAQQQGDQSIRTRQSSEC
Test: TUTase assay (Zcchc11 assay, Lin28a-dependent polyuridylation of pre-let-7)
Type: biochemical
Settings: read-out: Potency Lin28a-dep Z11 IC50
Procedure, shortened: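 HEK293-expressed human Zcchc11 (residues 212-1420, 0.2 nM) with 10 nM LIN28A and 2 nM 5′-fluorescein pre-let-7, preincubated 30 min at room temperature, pH 7.3. Started with 5 uM UTP; poly(U) tails quenched by 3′-rhodamine A20 probe, read kinetically. IC50 from early-rate four-parameter fit; no-UTP wells define 0%.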

[1] = Lin28a-dependent Zcchc11 (Z11) TUTase assay
[2] = Lin28a-dependent Zcchc11 (Z11) TUTase activity

IC50 [1] [µM]	IC50 [2] [µM]	Compound	other results
≤ 1	–	O=C(O)c1cn(-c2ccc(N3CCC3)nc2)c2cc(N3CCC[C@@H]3COc3ncccc3Cl)c(Br)cc2c1=O [Example 491, (R)-1-(6-(azetidin-1-yl)pyridin-3-yl)-6-bromo-7-(2-(((3-chloropyridin-2-yl)oxy)methyl)pyrrolidin-1-yl)-4-oxo-1,4-dihydroquinoline-3-carboxylic acid]	–
–	≤ 1	CN(C)C1CN(c2ccc(-n3cc(C(=O)O)c(=O)c4cc(Cl)c(N5CCC5COc5ncccc5Cl)cc43)cn2)C1 (stereo not shown) [Compound 184, 6-chloro-7-(2-(((3-chloropyridin-2-yl)oxy)methyl)azetidin-1-yl)-1-(6-(3-(dimethyl-amino)azetidin-1-yl)pyridin-3-yl)-4-oxo-1,4-dihydro-quinoline-3-carboxylic acid formic acid]	–
–	≤ 1	CN(C)C1CN(c2ccc(-n3cc(C(=O)O)c(=O)c4cc(Cl)c(N5CCC6CC65COc5ncccc5Cl)cc43)cn2)C1 (stereo not shown) [Compound 170, 6-chloro-7-(1-(((3-chloropyridin-2-yl)oxy)methyl)-2-azabicyclo [3.1.0]hexan-2-yl)-1-(6-(3-(dimethyl-amino)azetidin-1-yl)pyridin-3-yl)-4-oxo-1,4-dihydro-quinoline-3-carboxylic acid]	–
–	≤ 1	CN(C)C1CN(c2ccc(-n3cc(C(=O)O)c(=O)c4cc(Cl)c(N5CC(c6cnn(C)c6)C[C@@H]5COc5ncccc5Cl)cc43)cn2)C1 (mixture of isomers) [Compound 188, rac-6-chloro-7-((2R)-2-(((3-chloropyridin-2-yl)oxy)methyl)-4-(1-methyl-1H-pyrazol-4-yl)pyrrolidin-1-yl)-1-(6-(3-(dimethyl-amino)azetidin-1-yl)pyridin-3-yl)-4-oxo-1,4-dihydro-quinoline-3-carboxylic acid]	–
≤ 1	–	CN(C)C1CN(c2ccc(-n3cc(C(=O)O)c(=O)c4cc(Br)c(N5CCC[C@@H]5COc5ncccc5Cl)cc43)cn2)C1 [Example 537, (R)-6-bromo-7-(2-(((3-chloropyridin-2-yl)oxy)methyl)pyrrolidin-1-yl)-1-(6-(3-(dimethylamino)azetidin-1-yl)pyridin-3-yl)-4-oxo-1,4-dihydroquinoline-3-carboxylic acid]	–
–	≤ 1	CCN1CC(n2cc(-n3cc(C(=O)O)c(=O)c4cc(Cl)c(N5CCC[C@@H]5COc5ncccc5Cl)cc43)cn2)C1 [Compound 241]	–
≤ 1	–	COCCN(C)C1CN(c2ccc(-n3cc(C(=O)O)c(=O)c4cc(Cl)c(N5CCC[C@@H]5COc5ncccc5Cl)cc43)cn2)C1 [Example 495, (R)-6-chloro-7-(2-(((3-chloropyridin-2-yl)oxy)methyl)pyrrolidin-1-yl)-1-(6-(3-((2-methoxyethyl) (methyl)amino)azetidin-1-yl)pyridin-3-yl)-4-oxo-1,4-dihydroquinoline-3-carboxylic acid]	–
–	≤ 1	CC1C[C@H](COc2ncccc2Cl)N(c2cc3c(cc2F)c(=O)c(C(=O)O)cn3-c2ccc(N3CC(N(C)C)C3)nc2)C1 (stereo partly drawn) [Compound 330, 7-[(2R)-2-[[(3-Chloropyridin-2-yl)oxy]methyl]-4-methyl-pyrrolidin-1-yl]-1-[6-[3-(dimethyl-amino)azetidin-1-yl]pyridin-3-yl]-6-fluoro-4-oxoquinoline-3-carboxylic acic]	–
≤ 1	–	CN(C)C1CN(c2ccc(-n3cc(C(=O)O)c(=O)c4cc(Cl)c(N5C[C@@H](F)C[C@@H]5COc5ncccc5Cl)cc43)cn2)C1 [Example 464, 6-chloro-7-((2R,4S)-2-(((3-chloropyridin-2-yl)oxy)methyl)-4-fluoropyrrolidin-1-yl)-1-(6-(3-(dimethylamino)azetidin-1-yl)pyridin-3-yl)-4-oxo-1,4-dihydroquinoline-3-carboxylic acid]	–

Continued, compound first:

Compound	IC50 [1] [µM]	IC50 [2] [µM]	other results
CN(C)CCNc1ccc(-n2cc(C(=O)O)c(=O)c3cc(C#N)c(N4CCC[C@@H]4COc4ncccc4Cl)cc32)cn1 [Example 570, (R)-7-(2-(((3-chloropyridin-2-yl)oxy)methyl)pyrrolidin-1-yl)-6-cyano-1-(6-((2-(dimethylamino)ethyl)amino)pyridin-3-yl)-4-oxo-1,4-dihydroquinoline-3-carboxylic acid]	≤ 1	–	–
O=C(O)c1cn(-c2cnn(C3CN(CC(F)(F)F)C3)c2)c2cc(N3CCC[C@@H]3COc3ncccc3Cl)c(Cl)cc2c1=O [Compound 239, 6-chloro-7-[(2R)-2-[[(3-chloropyridin-2-yl)oxy]methyl]pyrrolidin-1-yl]-4-oxo-1-[1-[1-(2,2,2-trifluoro-ethyl)azetidin-3-yl]pyrazol-4-yl]quinoline-3-carboxylic acid]	–	≤ 1	–
Cc1cccc(-n2cc(C(=O)O)c(=O)c3cc(F)c(N4CCC[C@@H]4COc4ccccn4)cc32)c1 [Example 391, (R)-6-fluoro-4-oxo-7-(2-((pyridin-2-yloxy)methyl)pyrrolidin-1-yl)-1-(m-tolyl)-1,4-dihydroquinoline-3-carboxylic acid]	≤ 1	–	–
CN(C)C1CN(c2ccc(-n3cc(C(=O)O)c(=O)c4cc(F)c(N5[C@@H](COc6nc7c(ccn7C)cc6Cl)C[C@H]6C[C@H]65)cc43)cn2)C1 [Compound 337, 7-[(1R,3R,5R)-3-[{{5-Chloro-1-methyl-pyrrolo[2,3-b]pyridin-6-yl}oxy)methyl]-2-azabicyclo [3.1.0]hexan-2-yl]-1-{6-[3-(dimethyl-amino)azetidin-1-yl]pyridin-3-yl}-6-fluoro-4-oxoquinoline-3-carboxylic acid]	–	≤ 1	–
CCc1cccnc1OC[C@H]1CCCN1c1cc2c(cc1F)c(=O)c(C(=O)O)cn2-c1ccccc1 [Example 6, (R)-7-(2-(((3-ethylpyridin-2-yl)oxy)methyl)pyrrolidin-1-yl)-6-fluoro-4-oxo-1-phenyl-1,4-dihydroquinoline-3-carboxylic acid]	–	–	IC50 (LIN28A 10 nM, Zcchc11 0.2 nM, 5′-fluorescein pre-let-7 miRNA 2 nM, UTP 5 uM, room temperature, 30 minutes pre-incubation): > 50 µM
COc1ccnc(OC[C@H]2C[C@H]3C[C@H]3N2c2cc3c(cc2F)c(=O)c(C(=O)O)cn3-c2ccc(N(C)C)nc2)c1Cl [Compound 265, 7-((1R,3R,5R)-3-(((3-chloro-4-methoxy-pyridin-2-yl)oxy)methyl)-2-azabicyclo [3.1.0]hexan-2-yl)-1-(6-(dimethyl-amino)pyridin-3-yl)-6-fluoro-4-oxo-1,4-dihydro-quinoline-3-carboxylic acid]	–	≤ 1	–
Cc1c(-n2cc(C(=O)O)c(=O)c3cc(Cl)c(N4CCC[C@@H]4COc4ncccc4Cl)cc32)cnn1C (racemic) [Compound 179, rac-(R)-6-chloro-7-(2-(((3-chloropyridin-2-yl)oxy)methyl)pyrrolidin-1-yl)-1-(1,5-dimethyl-1H-pyrazol-4-yl)-4-oxo-1,4-dihydro-quinoline-3-carboxylic acid]	–	≤ 1	–
Cn1cc(-n2cc(C(=O)O)c(=O)c3cc(C#N)c(N4CCC[C@H]4COc4ncccc4Cl)nc32)cn1 [Compound 281, (S)-7-(2-(((3-chloropyridin-2-yl)oxy)methyl)pyrrolidin-1-yl)-6-cyano-1-(1-methyl-1H-pyrazol-4-yl)-4-oxo-1,4-dihydro-1,8-naphthyridine-3-carboxylic acid]	–	≤ 1	–
O=C(O)c1cn(-c2cnc3[nH]ncc3c2)c2cc(N3CCC[C@@H]3COc3ncccc3Cl)c(Cl)cc2c1=O [Example 475, (R)-6-chloro-7-(2-(((3-chloropyridin-2-yl)oxy)methyl)pyrrolidin-1-yl)-4-oxo-1-(1H-pyrazolo[3,4-b]pyridin-5-yl)-1,4-dihydroquinoline-3-carboxylic acid]	≤ 1	–	–
O=C(O)c1cn(-c2ccc(F)cn2)c2cc(N3CCC[C@@H]3COc3ccccn3)c(F)cc2c1=O [Example 380, (R)-6-fluoro-1-(5-fluoropyridin-2-yl)-4-oxo-7-(2-((pyridin-2-yloxy)methyl)pyrrolidin-1-yl)-1,4-dihydroquinoline-3-carboxylic acid]	1 to 10	–	–
